In patent publication EP0121764B1, “Polypeptides” (F. HOFFMANN-LA ROCHE AG, priority 1983, dated 1990):
No end group written: not given here.

Legend:
[1] = synthetically prepared peptides; factor relative to GRF(1-40)-OH; cited from earlier work
[2] = tested on: in Gewebekultur gezüchtete Zellen von Rattenhypophysen; assay: Growth hormone release from cultured rat pituitary cells (RIA for rat growth hormone); assay type: cell-based, Sprague-Dawley-Ratten
Excerpt: Die biologische Aktivität von (leu^27)-GRF(1―44)-OH wurde mit derjenigen von natürlichem GRF(1―44)-NH2 verglichen, das aus einem Pankreastumor eines an Akromegalie leidenden Patienten isoliert wurde (Salk Institute Standard hp-GRF-NH2(NL-A-10)). Der Test auf biologische Aktivität, bei dem die Fähigkeit gemessen wird, in Gewebekultur gezüchtete Zellen von Rattenhypophysen zur Wachstumshormonproduktion zu stimulieren, wurde in der folgenden Weise durchgeführt:
Die Hypophysen-Vorderlappen von 30-40 männlichen Sprague-Dawley-Ratten (175 g) wurden dreimal mit sterilem Hepes-Puffer (pH 7,5) gewaschen und bei 37°C in 20-30 ml Hepes-Puffer (0,025 m, pH 7,35), enthaltend Kollagenase (4 mg/ml) und Dispase (2 mg/ml), dispergiert. Nach 100-110 minütiger Behandlung mit einem Vortex-Mixer und Behandlung mit Pasteur-Pipette, wurden die dispergierten Zellen durch Zentrifugieren (4 Minuten, 150xg) abgetrennt und während 10 Minuten in Hepes-Puffer, enthaltend 8 pg/ml Neuraminidase und 200 pg/ml Ethylendiamintetraessigsäure-dinatriumsalz, pH 7,35, resuspendiert. Die Zellen wurden zweimal mit folgendem Medium gewaschen: F-12/DMEM/BGjb (6:3:1) (Gibco: 430―1700/430―1600/320―2591) mit 2 g/I Rinderserumalbumin (BSA), 2x38 g/I Hepes und 50 mg/I Gentamycin und auf Mikrotiterplatten aufgebracht (1,5x10^5 Zellen/ml). Dem Medium in den einzelnen Löchern wurde entweder (leu^27)-GRF(1―44)-OH oder natürliches GRF(1-44)-NH2 in solchen Mengen zugesetzt, dass sich folgende Konzentrationen ergaben: 3.1, 6.3, 12.5, 25.0, 50.0, 100.0 und 200.0 fMol/ml. Die Kontrollen wurden nicht supplementiert. Das Aufbringen mit diesem Medium erfolgte unter Zusatz von 2% fötalem Kälberserum, um eine schnelle Fixierung der Zellen zu erreichen. Am vierten Tag wurden die Zellen zweimal mit dem oben definierten Medium (ohne Kälberserum) gewaschen. Schliesslich wurden jedem Loch 900 µl des Mediums sowie 100 µl Medium mit der Testsubstanz zugesetzt (jeweils dreifach). Nach dreistündiger Inkubation wurde der Überstand gesammelt und soweit verdünnt, dass Radioimmunoassays (RIAs) auf Ratten-Wachstumshormon durchgeführt werden konnten. […]

| Substance | Aktivitäten ähnlich wie GRF(1-40)-OH (innerhalb eines Faktors) [1] | relative Aktivität gegenüber dem Standard des Salk Instituts ([2]; computer analysis of the table data, standard hp-GRF-NH2(NL-A-10) = natural GRF(1-44)-NH2, 3.1-200.0 fMol/ml, 3 h incubation) | Faktor, um den die ausgeschüttete Menge an Wachstumshormon grösser ist, bezogen auf (leu^27)-GRF-OH ([2]; in vitro) | Aktivität verglichen mit GRF(1-44)-NH2 ([2]; stimulation of growth hormone production, 3.1-200.0 fMol/ml, 3 h incubation) |
| --- | --- | --- | --- | --- |
| GRF(1-32)-NH2: synthetic GRF fragment, first 32 amino acids, amidated (Rivier et al.) (YADAIFTNSYRKVLGQLSARKLLQDIMSRQQG-NH2; UniProt P01286 32-63, looked up, fragment) | ≤ 2 | – | – | – |
| (leu^27)-GRF(1―44)-OH (YADAIFTNSYRKVLGQLSARKLLQDILSRQQGESNQERGARARL-OH; UniProt P01286 32-75, looked up, variant M27L) [(Leu^27)-GRF(1-44)-OH] | – | 1,063 | ≥ 10 | gleich oder leicht höher |
| GRF(1-40)-NH2: synthetic GRF fragment, first 40 amino acids, amidated (Rivier et al.) (YADAIFTNSYRKVLGQLSARKLLQDIMSRQQGESNQERGA-NH2; UniProt P01286 32-71, looked up, fragment) | ≤ 2 | – | – | – |
| GRF(1-29)-NH2: synthetic GRF fragment, first 29 amino acids, amidated (Rivier et al.) (YADAIFTNSYRKVLGQLSARKLLQDIMSR-NH2; UniProt P01286 32-60, looked up, fragment) | ≤ 2 | – | – | – |
| GRF(1-39)-NH2: synthetic GRF fragment, first 39 amino acids, amidated (Rivier et al.) (YADAIFTNSYRKVLGQLSARKLLQDIMSRQQGESNQERG-NH2; UniProt P01286 32-70, looked up, fragment) | ≤ 2 | – | – | – |
